Experiments:
in vivo = details: male, C57BL/6, mouse, po; for half-life: 75 mg/kg
Experimental: As appreciated, h-rac-bupropion is a 1:1 mixture of the two protonated enantiomers h-S-bupropion and h-R-bupropion. […] Animals were euthanized at preset time points (n=3 per time point). […] Quantitative data was analyzed in Excel (Microsoft Corp, Redmond, Wash.) using the PKSolver add-in (version 2, as described by Zhang et al. in Comput Methods Programs Biomed 99 (2010) 306-314) to determine PK parameters.

dopamine transporter = biological target: T1, dopamine transporter (Rattus norvegicus, UniProt P23977); test: Inhibition of dopamine uptake in rat striatum synaptosomes; assay type: biochemical
T1 construct: tissue Cerep, France (assay provider); host or cells: rat striatum synaptosomes
Experimental: The inhibitory activity of the (S)- and (R)-enantiomers of 1-(m-chlorophenyl)-2-(tert-butylamino)-(2-^2H)-propan-1-one was evaluated in the rat synaptosome assay (Cerep, France). Briefly, each compound was incubated for 15 min at 37° C. with rat striatum synaptosomes in the presence of tritiated dopamine (DA). The uptake of radiolabeled DA by the synaptosomes was measured by scintillation counting as a function of compound concentration. Inhibition of the dopamine transporter is observed when the amount of radioactivity in the synaptosomes is lower in the presence of the test article than in its absence. Analysis of the data was performed using the log(inhibitor) vs. response—variable slope (four parameters) model in GraphPad Prism 6.0 (GraphPad Software, Inc., La Jolla, Calif.), where response is % inhibition (% inhibition=100 [(DA uptake)control−(DA uptake)compound)]/(DA uptake)vehicle). Both inhibition curves were characterized by Hill slopes close to 1.

female CD-1 mice = test: Behavioral effects after intraperitoneal injection in female CD-1 mice; details: 2 h observation
Experimental: Individual body weights were used for dose volume calculations. Equal numbers of animals per group were tested each day. […] Animals were also observed 24 h post-dose. During the 2 h observation period, presence or absence of ataxic gait, paralysis, hyperactivity, hypoactivity, and catatonic episodes was recorded. Number, time of onset, duration, and intensity of convulsions were also recorded. Duration of each convulsion was graded as short (1 to 10 s), medium (11 to 30 s), or long (≧31 s). Intensity of convulsion was similarly graded as mild, moderate, or severe. Any animal showing a single episode of severe seizure longer than 1 min or experiencing greater than 40 consecutive episodes of severe convulsions over 1 h or less was euthanized.

[1] = biological target: T2, norepinephrine transporter (Rattus norvegicus, UniProt Q63380); test: Inhibition of norepinephrine uptake in rat hypothalamus synaptosomes; assay type: biochemical
T2 construct: tissue Cerep, France (assay provider); host or cells: rat hypothalamus synaptosomes
Experimental: The inhibitory activity of the (S)- and (R)-enantiomers of 1-(m-chlorophenyl)-2-(tert-butylamino)-(2-^2H)-propan-1-one was evaluated in the rat synaptosome assay (Cerep, France). Briefly, compounds were incubated for 20 min at 37° C. with rat hypothalamus synaptosomes in the presence of tritiated norepinephrine (NE). The uptake of radiolabeled NE by the synaptosomes was measured as a function of compound concentration. Inhibition of the transporter is observed when the amount of radioactivity in the synaptosomes is lower in the presence of test article. Analysis of the data was performed using the log(inhibitor) vs. response—variable slope (four parameters) model in GraphPad Prism 6.0 (GraphPad Software, Inc., La Jolla, Calif.), where response is % inhibition (% inhibition=100 [(NE uptake)control−(NE uptake)compound)]/(NE uptake)vehicle). Both inhibition curves were characterized by Hill slopes close to 1.

[2] = biological target: T3, human α7 nicotinic acetylcholine receptor (Homo sapiens, UniProt P36544); test: Inhibition of acetylcholine induced current in Xenopus Laevis oocytes overexpressing α7 nAChR; assay type: cell-based
T3 construct: expressed in transfected cells; host or cells: Xenopus laevis oocytes injected with cDNA
Experimental: Evaluation of the antagonist activity of the enantiomers of deuterated bupropion at α7 and α4β2 nicotinic acetylcholine receptors (nAChRs) was carried out in Xenopus Laevis oocytes prepared and injected with the corresponding cDNA using standard procedures. Receptor expression was examined two days after injection. For α4β2 nAChR, the two cDNAs were injected in equimolar amounts. All experiments were performed at 18° C. and cells were superfused with OR2 medium containing 82.5 mM sodium chloride, 2.5 mM potassium chloride, 5 mM HEPES, 1.8 mM calcium chloride, and 1 mM magnesium chloride at pH 7.4. A two-electrode voltage-clamp configuration was used to record currents evoked by acetylcholine addition. Data acquisition and analysis was performed in Matlab (Mathworks, Inc., Natick, Mass.). Statistical analysis was executed in Excel (Microsoft Corp, Redmond, Wash.) or Matlab (Mathwork, Inc., Natick, Mass.). All experiments were carried out using at least 3 oocytes.

T3 sequence (P36544 23-502): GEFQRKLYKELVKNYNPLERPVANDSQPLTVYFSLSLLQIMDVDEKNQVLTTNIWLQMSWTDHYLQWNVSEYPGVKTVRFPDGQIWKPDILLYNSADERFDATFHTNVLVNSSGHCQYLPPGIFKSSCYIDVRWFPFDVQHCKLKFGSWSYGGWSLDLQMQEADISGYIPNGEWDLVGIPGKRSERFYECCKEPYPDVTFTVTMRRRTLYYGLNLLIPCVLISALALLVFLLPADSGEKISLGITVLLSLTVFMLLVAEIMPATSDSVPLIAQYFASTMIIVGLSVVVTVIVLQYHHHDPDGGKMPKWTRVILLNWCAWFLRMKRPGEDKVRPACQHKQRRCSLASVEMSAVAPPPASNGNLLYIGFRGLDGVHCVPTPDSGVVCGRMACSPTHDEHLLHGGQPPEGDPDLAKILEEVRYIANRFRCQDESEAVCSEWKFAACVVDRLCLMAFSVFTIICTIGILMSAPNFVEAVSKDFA
T1 sequence (P23977 whole entry): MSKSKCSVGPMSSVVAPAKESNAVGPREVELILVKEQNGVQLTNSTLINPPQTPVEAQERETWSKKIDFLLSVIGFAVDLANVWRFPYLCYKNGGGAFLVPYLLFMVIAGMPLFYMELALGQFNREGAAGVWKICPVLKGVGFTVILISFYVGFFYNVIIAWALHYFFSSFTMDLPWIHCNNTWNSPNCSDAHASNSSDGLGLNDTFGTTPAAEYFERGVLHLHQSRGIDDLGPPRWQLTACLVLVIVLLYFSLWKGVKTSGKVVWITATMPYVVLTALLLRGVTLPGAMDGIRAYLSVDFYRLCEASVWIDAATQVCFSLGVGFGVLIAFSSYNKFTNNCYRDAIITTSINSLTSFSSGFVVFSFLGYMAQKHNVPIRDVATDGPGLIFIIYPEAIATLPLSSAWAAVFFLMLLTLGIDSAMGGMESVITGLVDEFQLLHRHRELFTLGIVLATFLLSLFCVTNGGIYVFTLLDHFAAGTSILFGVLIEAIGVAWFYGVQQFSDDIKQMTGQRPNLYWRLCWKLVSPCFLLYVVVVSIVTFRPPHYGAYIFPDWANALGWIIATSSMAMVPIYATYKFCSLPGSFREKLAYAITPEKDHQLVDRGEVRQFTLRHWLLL
T2 sequence (Q63380 1-617): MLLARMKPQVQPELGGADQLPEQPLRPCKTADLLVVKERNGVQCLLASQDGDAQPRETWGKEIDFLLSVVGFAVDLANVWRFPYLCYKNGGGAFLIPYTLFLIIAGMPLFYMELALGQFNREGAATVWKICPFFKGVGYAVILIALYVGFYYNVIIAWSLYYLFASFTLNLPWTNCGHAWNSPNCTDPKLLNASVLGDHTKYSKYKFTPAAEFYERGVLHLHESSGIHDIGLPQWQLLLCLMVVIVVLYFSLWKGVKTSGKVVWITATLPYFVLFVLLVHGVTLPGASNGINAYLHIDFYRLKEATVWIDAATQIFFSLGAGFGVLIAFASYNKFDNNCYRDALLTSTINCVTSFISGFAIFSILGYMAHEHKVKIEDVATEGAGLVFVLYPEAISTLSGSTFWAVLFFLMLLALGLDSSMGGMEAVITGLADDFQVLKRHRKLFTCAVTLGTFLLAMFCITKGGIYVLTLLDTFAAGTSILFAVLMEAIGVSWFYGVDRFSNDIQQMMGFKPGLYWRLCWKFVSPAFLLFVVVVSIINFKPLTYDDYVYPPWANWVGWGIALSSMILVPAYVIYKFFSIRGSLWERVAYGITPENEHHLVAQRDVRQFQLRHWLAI

Row | SMILES | AUC0-t of hR (h-R-bupropion) in plasma (in vivo) | AUC0-t of hRR (h-RR-hydroxybupropion) in plasma (in vivo) | AUC0-t of hS (h-S-bupropion) in plasma (in vivo) | AUC0-t of hSS (h-SS-hydroxybupropion) in plasma (in vivo) | half-life (in vivo) | IC50 (dopamine transporter) | mice per dose group experiencing ataxia (female CD-1 mice; 100 mg/kg i.p.) | mice per dose group experiencing catatonia (female CD-1 mice; 100 mg/kg i.p.) | mice per dose group experiencing convulsions (female CD-1 mice; 100 mg/kg i.p.) | mice per dose group experiencing hyperactivity (female CD-1 mice; 100 mg/kg i.p.) | mice per dose group experiencing hypoactivity (female CD-1 mice; 100 mg/kg i.p.) | mice per dose group experiencing ataxia (female CD-1 mice; 125 mg/kg i.p.) | mice per dose group experiencing catatonia (female CD-1 mice; 125 mg/kg i.p.) | mice per dose group experiencing convulsions (female CD-1 mice; 125 mg/kg i.p.) | mice per dose group experiencing hyperactivity (female CD-1 mice; 125 mg/kg i.p.) | mice per dose group experiencing hypoactivity (female CD-1 mice; 125 mg/kg i.p.) | mice per dose group experiencing ataxia (female CD-1 mice; 150 mg/kg i.p.) | mice per dose group experiencing catatonia (female CD-1 mice; 150 mg/kg i.p.) | mice per dose group experiencing convulsions (female CD-1 mice; 150 mg/kg i.p.) | mice per dose group experiencing hyperactivity (female CD-1 mice; 150 mg/kg i.p.) | further results
1 | CC(NC(C)(C)C)C(=O)c1cccc(Cl)c1 (racemic) [h-rac-bupropion, racemic-1-(m-chlorophenyl)-2-(tert-butylamino)-propan-1-one, reference compound] | 6798 ng·h/mL | 18393 ng·h/mL | 5265 ng·h/mL | 6591 ng·h/mL | – | – | – | – | – | – | – | – | – | – | – | – | – | – | – | – | –
2 | [2H][C@@](C)(NC(C)(C)C)C(=O)c1cccc(Cl)c1 [d-S-bupropion, (S)-1-(m-chlorophenyl)-2-(tert-butylamino)-(2-^2H)-propan-1-one] | 269 ng·h/mL | 1129 ng·h/mL | 469 ng·h/mL | 395 ng·h/mL | 0.9 h | 0.42 µM | 70% | 10% | 40% | 100% | 0% | 89% | 44% | 70% | 78% | 0% | 100% | 80% | 100% | 20% | AUC0-t of dSS (d-SS-hydroxybupropion) in plasma (in vivo): 6545 ng·h/mL; AUC(0-t) (in vivo): 4760 ng·h/mL; mice per dose group experiencing hypoactivity (female CD-1 mice; 150 mg/kg i.p.): 80%; IC50 [1]: 2.3 µM; IC50 [2]: 43.2 µM
3 | [2H][C@](C)(NC(C)(C)C)C(=O)c1cccc(Cl)c1 [d-R-bupropion, (R)-1-(m-chlorophenyl)-2-(tert-butylamino)-(2-^2H)-propan-1-one] | 496 ng·h/mL | 1685 ng·h/mL | 340 ng·h/mL | 169 ng·h/mL | 1.7 h | 4.2 µM | 56% | 78% | 33% | 0% | 100% | 80% | 90% | 60% | 0% | 100% | 90% | 100% | 100% | 0% | AUC0-t of dRR (d-RR-hydroxybupropion) in plasma (in vivo): 22059 ng·h/mL; mice per dose group experiencing hypoactivity (female CD-1 mice; 150 mg/kg i.p.): 100%; IC50 [1]: 5.76 µM; IC50 [2]: 28.7 µM

— patent publication US9732031B2 (priority 2013, dated 2017)
